Assay [1] deals with Staphylococcus aureus. Description: Antimicrobial activity against Staphylococcus aureus ATCC25923 by two fold broth microdilution method. The assay is classed as functional. (Broth dilution looks for growth in wells or tubes with falling amounts of substance.)
Assay [2] has as its system Staphylococcus aureus. Description: Antimicrobial activity against clinical isolates Staphylococcus aureus by two fold broth microdilution method. Format: functional.
Another assay concerns Bacillus cereus. The experiment in a line: Antimicrobial activity against clinical isolates Bacillus cereus by two fold broth microdilution method. The assay is classed as functional.
In a further assay the test system is Escherichia coli. The experiment in a line: Antimicrobial activity against Escherichia coli ATCC27622 by two fold broth microdilution method. The assay is classed as functional.
In assay [3] the test system is Vibrio parahaemolyticus. The experiment in a line: Antimicrobial activity against Vibrio parahaemolyticus ATCC17802 by two fold broth microdilution method. The assay is classed as functional.
Assay [4] has as its system Vibrio parahaemolyticus. The experiment in a line: Bactericidal activity against Vibrio parahaemolyticus ATCC17802 assessed as killing rate at 0.5 X MIC by measuring time limit of detection by bacterial killing kinetic assay. Format: functional.
In assay [5] the test system is Cell membrane. The experiment in a line: Induction of inner membrane permeabilization in Vibrio parahaemolyticus ATCC17802 assessed as increase in PI fluorescence intensity at 5 times MIC by propidium iodide penetration assay. The assay is classed as cell membranes. The note with it: time <= 200.0 min.
The test system of assay [6] is Cell membrane. Description: Induction of inner membrane permeabilization in Vibrio parahaemolyticus ATCC17802 at 5 times MIC measured upto 200 mins by propidium iodide penetration assay. The assay is classed as cell membranes.
Assay [7] deals with Cell membrane. Description: Induction of inner membrane permeabilization in Vibrio parahaemolyticus ATCC17802 assessed as calcein leakage at 5 times MIC by calcein-AM leakage assay. Format: cell membranes. Conditions: time <= 200.0 min, TDE = time-dependent effect.

Molecules are shown by their SMILES. Values after ≈ are worked out from the molar mass of the structure shown. Active and inactive are the calls of the source. The calls are words filed in the database; no cut-off is given here. Where a SMILES comes first, the peptide text is derived from it. Bounds are passed on as bounds.

What is called MIC is the least concentration at which growth counts as inhibited. For `CC[C@H](C)[C@H](NC(=O)[C@H](C)NC(=O)[C@H](CCCNC(=N)N)NC(=O)[C@H](C)NC(=O)[C@H](CC(C)C)NC(=O)[C@H](CCCCN)NC(=O)[C@H](CCCCN)NC(=O)[C@H](Cc1ccccc1)NC(=O)[C@H](CC(C)C)NC(=O)CNC(=O)[C@H](C)N)C(=O)N[C@@H](C)C(=O)N[C@@H](CCCCN)C(=O)NCC(=O)N[C@@H](Cc1ccccc1)C(=O)N[C@@H](CCCCN)C(=O)N[C@@H](C)C(=O)O` (H-AGLFKKLARAIAKGFKA-OH), the MIC in the assay on Staphylococcus aureus [1] (read-out: MIC) worked out at 9.38 µg/mL (≈ 5.24 µM); with Staphylococcus aureus [2], 18.8 µg/mL (≈ 10.5 µM); in the assay on Bacillus cereus it was 18.8 µg/mL (≈ 10.5 µM); against Escherichia coli, 9.38 µg/mL (≈ 5.24 µM); in the assay with Vibrio parahaemolyticus [3], 4.69 µg/mL (≈ 2.62 µM). For the same molecule, in the assay on Vibrio parahaemolyticus [4], the Time is more than 180 min.

As for `CC[C@H](C)[C@H](NC(=O)[C@H](C)NC(=O)[C@H](CCCNC(=N)N)NC(=O)[C@H](C)NC(=O)[C@H](CC(C)C)NC(=O)[C@H](CCCCN)NC(=O)[C@H](CCCCN)NC(=O)[C@H](Cc1ccccc1)NC(=O)[C@H](CC(C)C)NC(=O)CNC(=O)[C@H](C)N)C(=O)N[C@@H](CCCCN)C(=O)N[C@@H](CCCCN)C(=O)NCC(=O)N[C@@H](Cc1ccccc1)C(=O)N[C@@H](CCCCN)C(=O)N[C@@H](CC(C)C)C(=O)O` (H-AGLFKKLARAIKKGFKL-OH), the MIC in the assay on Staphylococcus aureus [1] (read-out: MIC) is 4.69 µg/mL (≈ 2.48 µM); against Staphylococcus aureus [2], 18.8 µg/mL (≈ 9.92 µM); against Bacillus cereus, 9.38 µg/mL (≈ 4.96 µM); in the assay on Escherichia coli, 9.38 µg/mL (≈ 4.96 µM); against Vibrio parahaemolyticus [3], 4.69 µg/mL (≈ 2.48 µM). In addition, the Time in the assay on Vibrio parahaemolyticus [4] is on record as more than 180 min. Also, the outcome in the assay with Cell membrane [5] was Active.

With `CC[C@H](C)[C@H](NC(=O)[C@H](CC(C)C)NC(=O)[C@H](CCCNC(=N)N)NC(=O)[C@H](CC(C)C)NC(=O)[C@H](CC(C)C)NC(=O)[C@H](CC(C)C)NC(=O)[C@H](CCCCN)NC(=O)[C@H](Cc1ccccc1)NC(=O)[C@H](CC(C)C)NC(=O)CNC(=O)[C@@H](N)CC(C)C)C(=O)N[C@@H](CC(C)C)C(=O)N[C@@H](CCCCN)C(=O)NCC(=O)N[C@@H](Cc1ccccc1)C(=O)N[C@@H](CCCCN)C(=O)N[C@@H](CC(C)C)C(=O)O` (H-LGLFKLLLRLILKGFKL-OH), the MIC against Staphylococcus aureus [1], against Staphylococcus aureus [2], against Bacillus cereus, against Escherichia coli and with Vibrio parahaemolyticus [3] was more than 200 µg/mL each time.

In the case of `CC[C@H](C)[C@H](NC(=O)[C@H](CC(C)C)NC(=O)[C@H](CCCNC(=N)N)NC(=O)[C@H](CC(C)C)NC(=O)[C@H](CC(C)C)NC(=O)[C@H](CC(C)C)NC(=O)[C@H](CC(C)C)NC(=O)[C@H](Cc1ccccc1)NC(=O)[C@H](CC(C)C)NC(=O)CNC(=O)[C@@H](N)CC(C)C)C(=O)N[C@@H](CC(C)C)C(=O)N[C@@H](CCCCN)C(=O)NCC(=O)N[C@@H](Cc1ccccc1)C(=O)N[C@@H](CCCCN)C(=O)N[C@@H](CC(C)C)C(=O)O` (H-LGLFLLLLRLILKGFKL-OH), the MIC with Staphylococcus aureus [1], in the assay on Staphylococcus aureus [2], with Bacillus cereus, against Escherichia coli and against Vibrio parahaemolyticus [3] was more than 200 µg/mL in each case.

In the case of `CC[C@H](C)[C@H](NC(=O)[C@H](C)NC(=O)[C@H](CCCNC(=N)N)NC(=O)[C@H](C)NC(=O)[C@H](CC(C)C)NC(=O)[C@H](CCCCN)NC(=O)[C@H](CCCCN)NC(=O)[C@H](Cc1ccccc1)NC(=O)[C@H](CC(C)C)NC(=O)CNC(=O)[C@@H](N)CCCNC(=N)N)C(=O)N[C@@H](CCCCN)C(=O)N[C@@H](CCCCN)C(=O)NCC(=O)N[C@@H](Cc1ccccc1)C(=O)N[C@@H](CCCCN)C(=O)N[C@@H](CCCCN)C(=O)O` (H-RGLFKKLARAIKKGFKK-OH), the MIC in the assay on Staphylococcus aureus [1] (read-out: MIC) amounted to 9.38 µg/mL (≈ 4.71 µM); in the assay with Staphylococcus aureus [2] it was 18.8 µg/mL (≈ 9.42 µM); against Bacillus cereus, 18.8 µg/mL (≈ 9.42 µM); with Escherichia coli, 9.38 µg/mL (≈ 4.71 µM); in the assay on Vibrio parahaemolyticus [3], 4.69 µg/mL (≈ 2.36 µM). Further, the Time in the assay on Vibrio parahaemolyticus [4] was more than 180 min. Also, the outcome in the assay with Cell membrane [5] was Active.

Take `CC[C@H](C)[C@H](NC(=O)[C@H](CC(C)C)NC(=O)[C@H](CCCNC(=N)N)NC(=O)[C@H](CC(C)C)NC(=O)[C@H](CC(C)C)NC(=O)[C@H](CCCCN)NC(=O)[C@H](CCCCN)NC(=O)[C@H](Cc1ccccc1)NC(=O)[C@H](CC(C)C)NC(=O)CNC(=O)[C@@H](N)CCCNC(=N)N)C(=O)N[C@@H](CCCCN)C(=O)N[C@@H](CCCCN)C(=O)NCC(=O)N[C@@H](Cc1ccccc1)C(=O)N[C@@H](CCCCN)C(=O)N[C@@H](CCCCN)C(=O)O` (H-RGLFKKLLRLIKKGFKK-OH): the MIC is 2.34 µg/mL (≈ 1.13 µM) in the assay with Staphylococcus aureus [1] (read-out: MIC); 18.8 µg/mL (≈ 9.04 µM) against Staphylococcus aureus [2]; 9.38 µg/mL (≈ 4.52 µM) with Bacillus cereus; 4.69 µg/mL (≈ 2.26 µM) against Escherichia coli; 4.69 µg/mL (≈ 2.26 µM) with Vibrio parahaemolyticus [3]. The Time with Vibrio parahaemolyticus [4] was 60 min. Moreover, the outcome in the assay on Cell membrane [6] and in the assay on Cell membrane [5] was Active. The Activity result in the assay on Cell membrane [7] was “Tde”.

Turning to `CC[C@H](C)[C@H](NC(=O)[C@H](CCCCN)NC(=O)[C@H](CCCNC(=N)N)NC(=O)[C@H](CCCNC(=N)N)NC(=O)[C@H](CC(C)C)NC(=O)[C@H](CCCCN)NC(=O)[C@H](CCCCN)NC(=O)[C@H](Cc1ccccc1)NC(=O)[C@H](CC(C)C)NC(=O)CNC(=O)[C@@H](N)CCCNC(=N)N)C(=O)N[C@@H](CCCCN)C(=O)N[C@@H](CCCCN)C(=O)NCC(=O)N[C@@H](Cc1ccccc1)C(=O)N[C@@H](CCCCN)C(=O)N[C@@H](CCCCN)C(=O)O` (H-RGLFKKLRRKIKKGFKK-OH), the MIC in the assay on Staphylococcus aureus [1] (read-out: MIC) was determined as 4.69 µg/mL (≈ 2.2 µM); against Staphylococcus aureus [2] it was 18.8 µg/mL (≈ 8.8 µM); against Bacillus cereus, 9.38 µg/mL (≈ 4.4 µM); in the assay with Escherichia coli it was 18.8 µg/mL (≈ 8.8 µM); against Vibrio parahaemolyticus [3], 4.69 µg/mL (≈ 2.2 µM). Also, in the assay on Vibrio parahaemolyticus [4], the Time is listed as more than 180 min. Moreover, the result in the assay on Cell membrane [5] was Active.

`CC[C@H](C)[C@H](NC(=O)[C@H](CCCCN)NC(=O)[C@H](CCCNC(=N)N)NC(=O)[C@H](CCCNC(=N)N)NC(=O)[C@H](CC(C)C)NC(=O)[C@H](CCCCN)NC(=O)[C@H](CCCCN)NC(=O)[C@H](Cc1ccccc1)NC(=O)[C@H](CC(C)C)NC(=O)CNC(=O)[C@H](CCCNC(=N)N)NC(=O)[C@@H](N)CCCNC(=N)N)C(=O)N[C@@H](CCCCN)C(=O)N[C@@H](CCCCN)C(=O)NCC(=O)N[C@@H](Cc1ccccc1)C(=O)N[C@@H](CCCCN)C(=O)N[C@@H](CCCCN)C(=O)N[C@H](C(=O)N[C@@H](Cc1ccccc1)C(=O)N[C@@H](CCCCN)C(=O)N[C@@H](CCCNC(=N)N)C(=O)N[C@@H](CC(C)C)C(=O)N1CCC[C@H]1C(=O)N1CCC[C@H]1C(=O)N[C@H](C(=O)NCC(=O)N[C@H](C(=O)NCC(=O)N[C@H](C(=O)N[C@@H](CO)C(=O)N[C@H](C(=O)N1CCC[C@H]1C(=O)N[C@@H](CC(C)C)C(=O)N[C@@H](C)C(=O)NCC(=O)N[C@@H](CCCNC(=N)N)C(=O)N[C@@H](CCCNC(=N)N)C(=O)O)[C@@H](C)CC)C(C)C)C(C)C)C(C)C)[C@@H](C)CC` (H-RRGLFKKLRRKIKKGFKKIFKRLPPVGVGVSIPLAGRR-OH): the MIC in the assay on Staphylococcus aureus [1] (read-out: MIC) stood at 4.69 µg/mL (≈ 1.07 µM); with Staphylococcus aureus [2], 9.38 µg/mL (≈ 2.13 µM); with Bacillus cereus, 4.69 µg/mL (≈ 1.07 µM); against Escherichia coli, 9.38 µg/mL (≈ 2.13 µM); with Vibrio parahaemolyticus [3], 4.69 µg/mL (≈ 1.07 µM). Moreover, the Time with Vibrio parahaemolyticus [4] came to 120 min.

Turning to `CC[C@H](C)[C@H](NC(=O)[C@H](CCCCN)NC(=O)[C@H](CC(C)C)NC(=O)[C@H](C)NC(=O)CNC(=O)[C@H](CC(N)=O)NC(=O)[C@H](CC(C)C)NC(=O)[C@@H](NC(=O)[C@H](CCCCN)NC(=O)[C@H](CCCCN)NC(=O)[C@H](Cc1c[nH]c2ccccc12)NC(=O)[C@H](Cc1ccccc1)NC(=O)[C@H](CCCCN)NC(=O)[C@H](CCCNC(=N)N)NC(=O)[C@H](CCCNC(=N)N)NC(=O)[C@@H](N)[C@@H](C)O)C(C)C)C(=O)N[C@@H](C)C(=O)N1CCC[C@H]1C(=O)N[C@@H](Cc1ccccc1)C(=O)N[C@@H](CC(C)C)C(=O)N[C@@H](CC(C)C)C(=O)NCC(=O)O` (H-TRRKFWKKVLNGALKIAPFLLG-OH), the MIC was 2.34 µg/mL (≈ 0.915 µM) in the assay on Staphylococcus aureus [1] (read-out: MIC); 9.38 µg/mL (≈ 3.67 µM) against Staphylococcus aureus [2]; 9.38 µg/mL (≈ 3.67 µM) against Bacillus cereus; 9.38 µg/mL (≈ 3.67 µM) in the assay on Escherichia coli; 4.69 µg/mL (≈ 1.83 µM) against Vibrio parahaemolyticus [3]. Also, in the assay with Vibrio parahaemolyticus [4], the Time is reported as 15 min.

As for `CN[C@H](CC(C)C)C(=O)N[C@H]1C(=O)N[C@@H](CC(N)=O)C(=O)N[C@H]2C(=O)N[C@H]3C(=O)N[C@H](C(=O)N[C@H](C(=O)O)c4cc(O)cc(O)c4-c4cc3ccc4O)[C@H](O)c3ccc(c(Cl)c3)Oc3cc2cc(c3O[C@@H]2O[C@H](CO)[C@@H](O)[C@H](O)[C@H]2O[C@H]2C[C@](C)(N)[C@H](O)[C@H](C)O2)Oc2ccc(cc2Cl)[C@H]1O` [VANCOMYCIN], the MIC with Staphylococcus aureus [1] (read-out: MIC) was 0.59 µg/mL (≈ 0.407 µM); against Staphylococcus aureus [2] it was more than 200 µg/mL; with Bacillus cereus, more than 200 µg/mL; with Escherichia coli it was 75 µg/mL (≈ 51.8 µM); in the assay on Vibrio parahaemolyticus [3], 75 µg/mL (≈ 51.8 µM).

The record behind these values is ChEMBL document CHEMBL5236579, “Hydrophobicity Determines the Bacterial Killing Rate of α-Helical Antimicrobial Peptides and Influences the Bacterial Resistance Development” (J Med Chem, 2022).
